Results as given in patent US5817690A, “4-aminoethoxy indolone derivatives” (American Home Products Corporation, priority 1997, dated 1998).

The compounds below were run against T1, dopamine D-2 receptor (D2 Spiper) (Rattus norvegicus, UniProt P61169) (assay: 3H-spiroperidol (Spiper.) binding in homogenized limbic brain tissue, affinity for the dopamine D-2 receptor).
T1 construct: homogenized limbic brain tissue is incubated with; from tissue; host or cells: limbic brain tissue homogenate
T1 sequence (P61169 whole entry): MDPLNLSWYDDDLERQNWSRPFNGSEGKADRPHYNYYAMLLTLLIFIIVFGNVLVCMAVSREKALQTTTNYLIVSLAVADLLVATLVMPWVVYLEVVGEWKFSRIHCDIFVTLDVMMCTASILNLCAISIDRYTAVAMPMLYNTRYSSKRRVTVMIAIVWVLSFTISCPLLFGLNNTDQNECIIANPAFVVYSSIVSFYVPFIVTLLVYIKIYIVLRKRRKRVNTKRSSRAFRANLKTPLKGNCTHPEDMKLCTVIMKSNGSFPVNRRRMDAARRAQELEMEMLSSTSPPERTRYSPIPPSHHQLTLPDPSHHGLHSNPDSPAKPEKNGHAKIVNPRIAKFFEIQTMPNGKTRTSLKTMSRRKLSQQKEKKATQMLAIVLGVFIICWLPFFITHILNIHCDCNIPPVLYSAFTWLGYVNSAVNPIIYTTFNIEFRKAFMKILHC

| IC50 [nM] | SMILES |
| --- | --- |
| 68.7 | O=C1Cc2c(OCCNCc3ccccc3)ccc(F)c2N1 [Example 15, 4-(2-Benzylamino-ethoxy)-7-fluoro-1,3-dihydro-indol-2-one] |
| 346 | CN(CCCC(=O)c1ccc(F)cc1)CCOc1cccc2c1CC(=O)N2 [Example 27, 4-(2-{[4-(4-Fluoro-phenyl)-4-oxo-butyl]-methyl-amino}-ethoxy)-1,3-dihydro-indol-2-one] |
| 918 | CNCCOc1cccc2c1CC(=O)N2 [Example 2, 4-(2-Methylamino-ethoxy)-1,3-dihydro-indol-2-one] |
| 25 | O=C1Cc2c(cccc2OCCNCCCCc2ccccc2)N1 [Example 13] |
| 145 | O=C1Cc2c(cccc2OCCNCc2ccccc2)N1 [Example 1, 4-(2-Benzylaminoethoxy)-1,3-dihydro-indol-2-one] |
| 81.4 | O=C1Cc2c(OCCN3CCc4ccccc4C3)ccc(Cl)c2N1 [Example 9, 7-Chloro-4-[2-(3,4-dihydro-1H-isoguinolin-2-yl)-ethoxy]-1,3-dihydro-indol-2-one] |
| 144 | CCCCNCCOc1ccc(Cl)c2c1CC(=O)N2 [Example 8, 4-(2-Butylamino-ethoxy)-7-chloro-1,3-dihydro-indol-2-one] |
| 36 | O=C1Cc2c(OCCNCc3ccccc3)ccc(Cl)c2N1 [Example 14, 4-(2-Benzylamino-ethoxy)-7-chloro-1,3-dihydro-indol-2-one] |
| 176 | O=C1Cc2c(OCCNCc3ccc(F)cc3)ccc(Cl)c2N1 [Example 4] |
| 37.5 | Cc1ccc(CNCCOc2ccc(Cl)c3c2CC(=O)N3)cc1 [Example 6] |
| 3420 | NCCOc1cccc2c1CC(=O)N2 [Example 3, 4-(2-Amino-ethoxy)-1,3-dihydro-indol-2-one] |
| 231 | CN(CCOc1ccc(Cl)c2c1CC(=O)N2)Cc1ccccc1 [Example 7, 4-[2-(N-Benzyl-N-methyl-amino)-ethoxy]-7-chloro-1,3dihydro-indol-2-one] |
| 51.9 | O=C1Cc2c(OCCNCc3ccc(Cl)cc3)ccc(Cl)c2N1 [Example 5] |
| 99.4 | O=C1Cc2c(OCCNCC3CCCCC3)ccc(F)c2N1 [Example 16, 4-[2-(Cyclohexylmethyl-amino)-ethoxy)-7-fluoro-1,3-dihydro-indol-2one] |
| 645 | CN(CCOc1cccc2c1CC(=O)N2)Cc1ccccc1 [Example 25, 4-[2-(Benzyl-methyl-amino)-ethoxy]-1,3-dihydro-indol-2-one] |
